Values of other authors as cited in PubChem BioAssay AID1259409 (Chemical Carcinogenesis Research Information System (CCRIS), 2018).

System: rodent chemically induced tumor inhibition, incidence and multiplicity
Experiment: CCRIS tumor inhibitor studies
Conditions: Promoter: NONE USED

Q: What does the source list for `CC/C(=C(\c1ccccc1)c1ccc(OCCN(C)C)cc1)c1ccccc1`?
A: tumour outcome (control, treated, inhibition, significance) (Carcinogen: N-METHYL-N-NITROSOUREA, 684-93-5, Dose [Inhibitor]: 50 UG DISSOLVED IN SMALL VOLUME OF ETHANOL AND DILUTED IN 1% GELATIN-0.9% NACL TO INJECTION VOLUME OF 0.2 ML, DAILY STAR, Route [Inhibitor]: INJECTION, Species: RAT, Strain/Sex: SPRAGUE-DAWLEY/FEMALE, Target Tissue: Type of Lesion: MAMMARY GLAND: TUMOR, Dose [Carcinogen]: 5 MG/100 G BW AT 0, 4 AND 8 WK OF STUDY STARTING SIMULTANEOUSLY WITH AGENT TREATMENT): 86%, 9%, 90%, not calculated; tumour outcome (control, treated, inhibition, significance) (Carcinogen: N-NITROSO-N-METHYLUREA, 684-93-5, Dose [Inhibitor]: 0, 0.5 MG/KG OF DIET FOR 3 MO BEGINNING 1 WK POST CARCINOGEN DOSE (STUDY DURATION: 100 D), Route [Inhibitor]: ORAL, Species: RAT, Strain/Sex: SPRAGUE-DAWLEY/FEMALE, Target Tissue: Type of Lesion: MAMMARY GLAND: TUMOR, Dose [Carcinogen]: 50 MG/KG BW ONCE): 100%, 75%, 25%, p=0.03; tumour outcome (control, treated, inhibition, significance) (Carcinogen: N-NITROSO-N-METHYLUREA, 684-93-5, Dose [Inhibitor]: 0, 0.5 MG/KG OF DIET FOR 4.5 MO BEGINNING 1 WK POST CARCINOGEN DOSE (STUDY DURATION: 100 D), Route [Inhibitor]: ORAL, Species: RAT, Strain/Sex: SPRAGUE-DAWLEY/FEMALE, Target Tissue: Type of Lesion: MAMMARY GLAND: TUMOR, Dose [Carcinogen]: 50 MG/KG BW ONCE): 96%, 50%, 48%, p=0.003; tumour outcome (control, treated, inhibition, significance) (Carcinogen: N-NITROSO-N-METHYLUREA, 684-93-5, Dose [Inhibitor]: 0, 1 MG/KG OF DIET FOR 4.5 MO BEGINNING 1 WK POST CARCINOGEN DOSE (STUDY DURATION: 100 D), Route [Inhibitor]: ORAL, Species: RAT, Strain/Sex: SPRAGUE-DAWLEY/FEMALE, Target Tissue: Type of Lesion: MAMMARY GLAND: TUMOR, Dose [Carcinogen]: 50 MG/KG BW ONCE): 96%, 42%, 56%, p<0.001; tumour outcome (control, treated, inhibition, significance) (Carcinogen: NONE USED, Dose [Inhibitor]: 0, 125 UG/D FROM SUSTAINED RELEASE SILASTIC CAPSULES ADMINISTERED TO OVARIECTOMIZED MICE FOR 17 MO BEGINNING AT 3 MO OF, Route [Inhibitor]: IMPLANT, Species: MOUSE, Strain/Sex: C3H/OUJ/FEMALE, Target Tissue: Type of Lesion: MAMMARY GLAND: TUMOR): 50%, 22%, 56%, p<0.003; tumour outcome (control, treated, inhibition, significance) (Carcinogen: NONE USED, Dose [Inhibitor]: 0, 125 UG/D FROM SUSTAINED RELEASE SILASTIC CAPSULES FOR 3 MO BEGINNING AT 4 MO OF AGE (STUDY DURATION: 18 MO), Route [Inhibitor]: IMPLANT, Species: MOUSE, Strain/Sex: C3H/OUJ/FEMALE, Target Tissue: Type of Lesion: MAMMARY GLAND: TUMOR): 100%, 20%, 80%, p<0.001; tumour outcome (control, treated, inhibition, significance) (Carcinogen: NONE USED, Dose [Inhibitor]: 0, 125 UG/D FROM SUSTAINED RELEASE SILASTIC CAPSULES FOR 6 MO BEGINNING AT 3 MO OF AGE (STUDY DURATION: 18 MO), Route [Inhibitor]: IMPLANT, Species: MOUSE, Strain/Sex: C3H/OUJ/FEMALE, Target Tissue: Type of Lesion: MAMMARY GLAND: TUMOR): 100%, 26%, 74%, p<0.001; tumour outcome (control, treated, inhibition, significance) (Carcinogen: NONE USED, Dose [Inhibitor]: 0, 125 UG/D FROM SUSTAINED RELEASE SILASTIC CAPSULES FOR 12 MO BEGINNING AT 3 MO OF AGE (STUDY DURATION: 18 MO), Route [Inhibitor]: IMPLANT, Species: MOUSE, Strain/Sex: C3H/OUJ/FEMALE, Target Tissue: Type of Lesion: MAMMARY GLAND: TUMOR): 100%, 24%, 76%, p<0.001; tumour outcome (control, treated, inhibition, significance) (Carcinogen: NONE USED, Dose [Inhibitor]: 0, 125 UG/D FROM SUSTAINED RELEASE SILASTIC CAPSULES FOR 17 MO BEGINNING AT 3 MO OF AGE (STUDY DURATION: 27 MO), Route [Inhibitor]: IMPLANT, Species: MOUSE, Strain/Sex: C3H/OUJ/FEMALE, Target Tissue: Type of Lesion: MAMMARY GLAND: TUMOR): 100%, 20%, 80%, p<0.003; tumour outcome (control, treated, inhibition, significance) (Carcinogen: PROGESTERONE, 57-83-0, Dose [Inhibitor]: 0, 125 UG/D FROM SUSTAINED RELEASE SILASTIC CAPSULES FOR 3 MO PRIOR TO CARCINOGEN TREATMENT (STUDY DURATION: 18 MO), Route [Inhibitor]: IMPLANT, Species: MOUSE, Strain/Sex: C3H/OUJ/FEMALE, Target Tissue: Type of Lesion: MAMMARY GLAND: TUMOR, Dose [Carcinogen]: 20 MG ADMINISTERED IN SUSTAINED RELEASE SILASTIC CAPSULES FOR A ONE MO DURATION EVERY OTHER MO): 100%, 92%, 8%, not significant; tumour outcome (control, treated, inhibition, significance) (Carcinogen: PROGESTERONE, 57-83-0, Dose [Inhibitor]: 0, 125 UG/D FROM SUSTAINED RELEASE SILASTIC CAPSULES FOR 6 MO PRIOR TO CARCINOGEN TREATMENT (STUDY DURATION: 18 MO), Route [Inhibitor]: IMPLANT, Species: MOUSE, Strain/Sex: C3H/OUJ/FEMALE, Target Tissue: Type of Lesion: MAMMARY GLAND: TUMOR, Dose [Carcinogen]: 20 MG ADMINISTERED IN SUSTAINED RELEASE SILASTIC CAPSULES FOR A ONE MO DURATION EVERY OTHER MO): 100%, 52%, 48%, p<0.002; tumour outcome (control, treated, inhibition, significance) (Carcinogen: PROGESTERONE, 57-83-0, Dose [Inhibitor]: 0, 125 UG/D FROM SUSTAINED RELEASE SILASTIC CAPSULES FOR 12 MO BEGINNING AT 3 MO OF AGE (STUDY DURATION: 21 MO), Route [Inhibitor]: IMPLANT, Species: MOUSE, Strain/Sex: C3H/OUJ/FEMALE, Target Tissue: Type of Lesion: MAMMARY GLAND: TUMOR, Dose [Carcinogen]: 20 MG ADMINISTERED IN SUSTAINED RELEASE SILASTIC CAPSULES GIVEN FOR A ONE MONTH DURATION EVERY OTHER MO BEGINNING AT 3 M): 100%, 88%, 12%, not significant; tumour outcome (control, treated, inhibition, significance) (Carcinogen: SUBCUTANEOUS IMPLANT, Dose [Inhibitor]: ZERANOL, 26538-44-3, Route [Inhibitor]: 0, 5 MG 2/WK TO DAY 32 THEN 1/WK TO DAY 202 (STUDY DURATION: 202 D), Species: HAMSTER, Strain/Sex: SUBCUTANEOUS, Target Tissue: Type of Lesion: LIVER: HEPATOCELLULAR ADENOMA, Dose [Carcinogen]: NONE USED): 56%, 0%, 100%, not calculated; tumour outcome (control, treated, inhibition, significance) (Carcinogen: ZERANOL, 26538-44-3, Dose [Inhibitor]: 0, 5 MG 2/WK TO DAY 32 THEN 1/WK TO DAY 202 (STUDY DURATION: 202 D), Route [Inhibitor]: SUBCUTANEOUS, Species: HAMSTER, Strain/Sex: ARMENIAN/FEMALE, Target Tissue: Type of Lesion: LIVER: HEPATOCELLULAR ADENOMA, Dose [Carcinogen]: 36 MG IMPLANTED ON DAYS 0 AND 94): 57%, 0%, 100%, not calculated; tumour outcome (control, treated, inhibition, significance) (Carcinogen: ZERANOL, 26538-44-3, Dose [Inhibitor]: 0, 5 MG 2/WK TO DAY 32 THEN 1/WK TO DAY 202 (STUDY DURATION: 202 D), Route [Inhibitor]: SUBCUTANEOUS, Species: HAMSTER, Strain/Sex: ARMENIAN/FEMALE, Target Tissue: Type of Lesion: LIVER: HEPATOCELLULAR CARCINOMA, Dose [Carcinogen]: 36 MG IMPLANTED ON DAYS 0 AND 94): 6/7 (86%), 0/4 (0%), 100%, not calculated; tumour outcome (control, treated, inhibition, significance) (Carcinogen: ZERANOL, 26538-44-3, Dose [Inhibitor]: 0, 5 MG 2/WK TO DAY 32 THEN 1/WK TO DAY 202 (STUDY DURATION: 202 D), Route [Inhibitor]: SUBCUTANEOUS, Species: HAMSTER, Strain/Sex: ARMENIAN/MALE, Target Tissue: Type of Lesion: LIVER: HEPATOCELLULAR CARCINOMA, Dose [Carcinogen]: 36 MG IMPLANTED ON DAYS 0 AND 94): 3/9 (33%), 0/4 (0%), 100%, not calculated
